# In patent US7927622B1, “Methods of transnasal transport/immunization with highly adaptable carriers” (priority 1999, dated 2011):
# Non-standard residues stand in square brackets, D forms with d. Residues, ends and D or L forms follow the SMILES beside them. dTrp(2-Me) = Cc1[nH]c2ccccc2c1C[C@@H](N)C(=O)O
# Legend:
# [1] = in vivo; cited from earlier work
# [2] = in vivo, cited from earlier work
# [3] = in vivo; cited from earlier work; remark: listed apart in the source
# [4] = human, in vivo, cited from earlier work
# [5] = in vivo; cited from earlier work; remark: listed apart in the source
# A-receptor subtype = A-receptor subtype (Canis lupus familiaris, UniProt Q5D0K2); conditions: dog, in vivo; cited from earlier work
# Sequence of A-receptor subtype (Q5D0K2 whole entry): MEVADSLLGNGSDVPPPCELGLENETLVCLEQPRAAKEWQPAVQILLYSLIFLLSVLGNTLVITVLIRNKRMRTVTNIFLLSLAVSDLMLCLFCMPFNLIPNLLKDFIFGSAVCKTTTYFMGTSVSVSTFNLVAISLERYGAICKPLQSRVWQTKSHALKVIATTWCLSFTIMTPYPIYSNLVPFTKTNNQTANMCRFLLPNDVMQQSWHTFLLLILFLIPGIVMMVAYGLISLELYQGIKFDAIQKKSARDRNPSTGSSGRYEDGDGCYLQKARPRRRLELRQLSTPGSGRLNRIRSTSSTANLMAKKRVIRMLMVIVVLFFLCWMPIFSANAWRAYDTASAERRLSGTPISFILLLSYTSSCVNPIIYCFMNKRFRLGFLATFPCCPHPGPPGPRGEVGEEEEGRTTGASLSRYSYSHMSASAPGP
# GH response = conditions: in vivo, cited from earlier work
# anti-TT antibodies = system: anti-TT antibodies; set-up: species or system mice; conditions: mouse, in vivo
# [6] = human, in vivo; cited from earlier work
# [7] = rat, in vivo, sc; cited from earlier work
# [8] = in vivo; cited from earlier work; remark: listed apart in the source
# [9] = in vivo; cited from earlier work; remark: listed apart in the source
# [10] = cited from earlier work
# [11] = in vivo; cited from earlier work; remark: listed apart in the source
# [12] = cited from earlier work; remark: listed apart in the source
# [13] = cited from earlier work; remark: listed apart in the source
# [14] = stomach and GI tract, cited from earlier work
# [15] = with polyoxyethylene 9-lauryl ether (Laureth-9)
molecule,measurement,setting,value
GHRP-2,response to intranasal GHRP-2,[1],"significant, but not quantitated, response"
NC(=O)CC[C@@H]1NC(=O)[C@H](Cc2ccccc2)NC(=O)[C@H](Cc2ccc(O)cc2)NC(=O)[C@@H](N)CSSC[C@@H](C(=O)N2CCC[C@H]2C(=O)N[C@@H](CCCN=C(N)N)C(=O)NCC(N)=O)NC(=O)[C@H](CC(N)=O)NC1=O [AVP],plasma vasopressin increase after i.v. relative to the other route,[2]; iv,exceeding 2000 fold
same,P3 component of the ERP,[2],substantially increased
same,memory performance,[3],enhanced memory performance
CCK-8,auditory event related potential (AERP),[4]; iv,shown to affect the auditory event related potential (AERP)
same,plasma CCK-8 concentrations vs 0.25 μg i.v.,[4],comparable
same,plasma CCK-8 concentrations vs 2.5 μg i.v.,[4],substantially lower
desglycinamide-[Arg8]vasopressin [DGAVP],learning concrete words,[5],no positive effect
same,reaction time for scanning of digits (Sternberg paradigm),[5],reduced the reaction time
same,short-term memory for abstract words,[5],improved short-term memory for abstract words in males but not in females
Hpa(SO3H)-Nle-Gly-Trp-Nle-MeAsp-Phe-NH2,feeding,A-receptor subtype,inhibited feeding
Cc1[nH]c2ccccc2c1C[C@@H](NC(=O)[C@@H](N)Cc1cnc[nH]1)C(=O)N[C@@H](C)C(=O)N[C@@H](Cc1c[nH]c2ccccc12)C(=O)N[C@H](Cc1ccccc1)C(=O)N[C@@H](CCCCN)C(N)=O [hexarelin] (H-H[dTrp(2-Me)]AW[dF]K-NH2),IGF-I and IGFBP-3 levels,GH response; po,slightly but significantly increased
same,GH response,GH response,not significantly higher than that induced by an injection of 1 μg GHRH/kg
same,IGF-I,GH response,did not significantly modify
same,IGFBP-3 levels,GH response,increased
monophosphoryl Lipid A [LA],dependence of immune response on LA,anti-TT antibodies,no strong dependence was found
same,dose dependence of TT-specific increase in serum absorbance,anti-TT antibodies,reverting this trend
same,effect of LA with purified TT,anti-TT antibodies,profited from the presence of LA
Salmon calcitonin,"decrease in serum 1,25-dihydroxyvitamin D",[6],14%
same,inhibition of the increase in fasting 2 h urinary hydroxyproline/creatinine ratio (OHPr/Cr),[6],40%
same,lowering of the increase in calcium/creatinine ratio (Ca/Cr),[6],80%
same,pain scores (visual analog scale),[6],did not influence the pain scores
same,tolerability,[6],well tolerated
same,effectiveness of the invasive method relative to nasal,[7],approximately 2 times
same,osteopenic changes,[7],prevented the osteopenic changes
CCNC(=O)[C@@H]1CCCN1C(=O)[C@H](CCCNC(=N)N)NC(=O)[C@H](CC(C)C)NC(=O)[C@@H](COC(C)(C)C)NC(=O)[C@H](Cc1ccc(O)cc1)NC(=O)[C@H](CO)NC(=O)[C@H](Cc1c[nH]c2ccccc12)NC(=O)[C@H](Cc1cnc[nH]1)NC(=O)[C@@H]1CCC(=O)N1 [buserelin],AFS mean pelvic score after treatment (from 24),[8],7
same,decrease of the size of the fibroids,[8],69%
NC(=O)CC[C@@H]1NC(=O)[C@H](Cc2ccccc2)NC(=O)[C@H](Cc2ccc(O)cc2)NC(=O)CCSSC[C@@H](C(=O)N2CCC[C@H]2C(=O)N[C@H](CCCN=C(N)N)C(=O)NCC(N)=O)NC(=O)[C@H](CC(N)=O)NC1=O [DDAVP],pain perception,[9],no general effect
GH: growth hormone protein,serum GH peak value,[10]; i.v. 0.015 IU/kg,128 µg/L
same,serum GH peak level,[10]; s.c. 0.10 IU/kg,around 14 μg/L
same,serum IGF-I levels,[10]; s.c. administration only,increased significantly
same,bioavailability,[10]; s.c. injection,50%
NC(=O)CC[C@@H]1NC(=O)[C@H](Cc2ccccc2)NC(=O)[C@H](Cc2ccc(O)cc2)NC(=O)[C@@H](N)CSSC[C@@H](C(=O)N2CCC[C@H]2C(=O)N[C@@H](CCCN=C(N)N)C(=O)NCC(N)=O)NC(=O)[C@H](CC(N)=O)NC1=O [vasopressin],nocturnal slow-wave sleep,[11],enhance nocturnal slow-wave sleep
"rhG-CSF: recombinant human granulocyte colony-stimulating factor, MW=19600 (protein, UniProt P09919 31-207, looked up) Granulocyte …: TPLGPASSLPQSFLLKCLEQVRKIQGDGAALQEKLVSECATYKLCHPEELVLLGHSLGIPWAPLSSCPSQALQLAGCLSQLHSGLFLYQGLLQALEGISPELGPTLDTLQLDVADFATTIWQQMEELGMAPALQPTQGAMPAFASAFQRRAGGVLVASHLQSFLEVSYRVLRHLAQP",total leukocyte numbers in peripheral blood,"[12]; nasal, pH 4, with or without dimethyl-β-cyclodextrin",increased
same,absorption with excipients,[12]; with dimethyl-β-cyclodextrin,improved the absorption of rhG-CSF appreciably
same,availability from leukocyte stimulation counts,"[13]; nasal, t=48 h",5-10%
same,relative bioavailability compared to s.c. injection (plasma AUC),"[13]; rat, in vivo",approximately 2%
same,increase of pharmacological availability,[13]; [15],3 times
same,increase of relative bioavailability,[13]; [15],23 times
same,change of availability,[13]; with sodium glycocholate,no increase in availability
"OVA: ovalbumin (protein, UniProt P01012 2-386, looked up) Ovalbumin: GSIGAASMEFCFDVFKELKVHHANENIFYCPIAIMSALAMVYLGAKDSTRTQINKVVRFDKLPGFGDSIEAQCGTSVNVHSSLRDILNQITKPNDVYSFSLASRLYAEERYPILPEYLQCVKELYRGGLEPINFQTAADQARELINSWVESQTNGIIRNVLQPSSVDSQTAMVLVNAIVFKGLWEKAFKDEDTQAMPFRVTEQESKPVQMMYQIGLFRVASMASEKMKILELPFASGTMSMLVLLPDEVSGLEQLESIINFEKLTEWTSSNVMEERKIKVYLPRMKMEEKYNLTSVLMAMGITDVFSSSANLSGISSAESLKISQAVHAAHAEINEAGREVVGSAEAGVDAASVSEEFRADHPFLFCIKHIATNAVLFFGRCVSP","absorption into the blood circulation, of applied dose",[14]; first printed range,0.007-0.008%
same,"absorption into the lymph circulation, of applied dose",[14]; second printed range,0.0007-0.002%
